Structures can show the parent of a compound that is named as a salt. Where two headings read alike, the source gives them in different places.
Experiments:
[1] = in vivo; conditions: rat, in vivo, po
Method: (§1) In the present study the test compounds were administered perorally by means of a stomach tube as an aqueous suspension in 5% acacia gum at a constant volume of 10 ml/kg to male Swiss mice and male Sprague-Dawley rats. Control rats and mice were given a corresponding volume of the aqueous suspension medium.
(§2) The acute toxicity was determined on groups of 10 rats treated orally with 500, 1000, 1500 and 2000 mg/kg of the test compound by means of a stomach tube.

[2] = tested on: rats; assay: in vivo
Method: as §1, §2

[3] = tested on: rats; assay type: in vivo, male Sprague-Dawley rats; conditions: 40 mg/kg oral
Method: as §1, with “medium. The results were statistically evaluated by Dunnett's test (C. V. Dunnett.: J.A. Stat. Ass., 40, 1096, 1955).” for “medium.”
1. Anti-inflammatory activity
The anti-inflammatory activity was determined in the carrageenin edema test according to Winter et al., (see C. A. Winter, E. A. Risley, G. W. Muss: J. Pharm. Exp. Ther., 141, 369, 1963).
The edema was provoked in rats by a subplantar injection into the right hind paw of 0.1 ml of a 1% carrageenin suspension in sterile saline solution.
Rats were treated orally with the test compound 60 minutes before the injection of carrageenin. The volume of the foot was measured with a mercury differential volume-meter immediately before injection of the phlogistic agent, and 3 and 5 hours thereafter. The anti-inflammatory activity was evaluated as percent edema inhibition of treated rats in comparison with the controls, according to the following formula: [formula]

| SMILES | LD50 at 168 h [1] | LD50 confidence limits ([2]; rat, in vivo, po) | toxicity compared with prior art compound ([2]; summary, Table VII) | Edema volume, mean ± standard deviation ([3]; 3 h after carrageenin) | Edema volume, mean ± standard deviation ([3]; 5 h after carrageenin) |
| --- | --- | --- | --- | --- | --- |
| CC(C)=CCC(C(=O)O)C(=O)N(Nc1ccccc1)c1ccccc1 (centres unmarked) [A, Calcium salt of (3-methyl-2-butenyl)propanedioic acid mono(1,2-diphenylhydrazide)] | 1060 mg/kg | 721.30 to 1550.51 mg/kg | less toxic |  |  |
| CCCCC(C(=O)O)C(=O)N(Nc1ccccc1)c1ccccc1 (centres unmarked) [B, Calcium salt of butylpropanedioic acid mono(1,2-diphenylhydrazide), reference compound] |  |  |  | 1.42 ± 0.27 mL | 2.06 ± 0.42 mL |
